Test results published in PubChem BioAssay AID248 (DTP/NCI, 2004).
Inconclusive results and toxic doses are left out. Cut-off read from the data, not from the text of the source: active = T/C of 150% or more; inactive = T/C below 125%.

Test system: L1210 leukemia ip in BDF1 mice, survival T/C
Experiment: NCI In Vivo Anticancer Drug Screen. Data for tumor model L1210 Leukemia (intraperitoneal) in B6D2F1 (BDF1) mice
Conditions: endpoint: mean survival time, higher = longer survival
Procedure, shortened: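 Tumor was transplanted into mice, which were then dosed with test compound or vehicle alone. Survival was recorded for each group, and the treated figure was expressed relative to the control figure.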

[1] = dose: 100.0 mg/kg/injection, schedule: Q04DX003 (ip), vehicle: Klucel (hydroxypropylcellulose) (HPC)
[2] = dose: 200.0 mg/kg/injection, schedule: Q04DX003 (ip), vehicle: Klucel (hydroxypropylcellulose) (HPC)
[3] = dose: 400.0 mg/kg/injection, schedule: Q04DX003 (ip), vehicle: Klucel (hydroxypropylcellulose) (HPC)
[4] = dose: 100.0 mg/kg/injection, schedule: Q01DX001 (ip), vehicle: saline
[5] = dose: 200.0 mg/kg/injection, schedule: Q01DX001 (ip), vehicle: saline

Measured: T/C

CCC(CC)N1CCCS1(=O)=O
inactive: dose: 100.0 mg/kg/injection, schedule: Q01DX009 (ip), vehicle: saline 93 % of control | dose: 200.0 mg/kg/injection, schedule: Q01DX009 (ip), vehicle: saline 102 % of control | dose: 400.0 mg/kg/injection, schedule: Q01DX009 (ip), vehicle: saline 96 % of control

Nc1nnco1
inactive: dose: 222.0 mg/kg/injection, schedule: Q01DX Z (ip), vehicle: saline 97 % of control | dose: 333.0 mg/kg/injection, schedule: Q01DX Z (ip), vehicle: saline 108 % of control | dose: 500.0 mg/kg/injection, schedule: Q01DX Z (ip), vehicle: saline 97 % of control

C[n+]1ccc(/C=C/c2ccc(Cl)c(Cl)c2)cc1
inactive: dose: 3.0 mg/kg/injection, schedule: Q01DX009 (ip), vehicle: Klucel (hydroxypropylcellulose) (HPC) 105 % of control | dose: 6.0 mg/kg/injection, schedule: Q01DX009 (ip), vehicle: Klucel (hydroxypropylcellulose) (HPC) 93 % of control | dose: 12.0 mg/kg/injection, schedule: Q01DX009 (ip), vehicle: Klucel (hydroxypropylcellulose) (HPC) 93 % of control | dose: 12.5 mg/kg/injection, schedule: Q04DX003 (ip), vehicle: Klucel (hydroxypropylcellulose) (HPC) 104 % of control

CCCCC[CH2][Sn]([CH2]CCCCC)([CH2]CCCCC)[NH]S(=O)(=O)c1ccc(C)cc1
inactive: dose: 100.0 mg/kg/injection, schedule: Q04DX002 (ip), vehicle: saline with Tween-80 87 % of control | dose: 200.0 mg/kg/injection, schedule: Q04DX002 (ip), vehicle: saline with Tween-80 105 % of control | dose: 400.0 mg/kg/injection, schedule: Q04DX002 (ip), vehicle: saline with Tween-80 94 % of control

CCCCCCCCCCCCCCCC[N+](C)(C)c1nc(Cl)nc(Cl)n1
inactive: dose: 3.75 mg/kg/injection, schedule: Q01DX009 (ip), vehicle: saline 102 % of control | dose: 7.5 mg/kg/injection, schedule: Q01DX009 (ip), vehicle: saline 97 % of control | dose: 15.0 mg/kg/injection, schedule: Q01DX009 (ip), vehicle: saline 96 % of control | dose: 30.0 mg/kg/injection, schedule: Q01DX009 (ip), vehicle: saline 96 % of control | dose: 37.5 mg/kg/injection, schedule: Q04DX003 (ip), vehicle: saline 102 % of control | dose: 50.0 mg/kg/injection, schedule: Q01DX001 (ip), vehicle: water 105 % of control | dose: 75.0 mg/kg/injection, schedule: Q04DX003 (ip), vehicle: saline 102 % of control | dose: 100.0 mg/kg/injection, schedule: Q01DX001 (ip), vehicle: water 100 % of control

Cc1cc(NC(=O)NC/C=C/Br)c2ccccc2n1
inactive: dose: 100.0 mg/kg/injection, schedule: Q01DX001 (ip), vehicle: Klucel (hydroxypropylcellulose) (HPC) 97 % of control | [1] 98 % of control | dose: 200.0 mg/kg/injection, schedule: Q01DX001 (ip), vehicle: Klucel (hydroxypropylcellulose) (HPC) 108 % of control | [2] 93 % of control | dose: 400.0 mg/kg/injection, schedule: Q01DX001 (ip), vehicle: Klucel (hydroxypropylcellulose) (HPC) 97 % of control | [3] 101 % of control

Cc1ccc(NC(=O)c2cccc(C(=O)Nc3ccc(C)c(C)c3)c2)cc1C
inactive: dose: 100.0 mg/kg/injection, schedule: Q01DX009 (ip), vehicle: Klucel (hydroxypropylcellulose) (HPC) 94 % of control | [1] 91 % of control | dose: 200.0 mg/kg/injection, schedule: Q01DX009 (ip), vehicle: Klucel (hydroxypropylcellulose) (HPC) 104 % of control | [2] 97 % of control | dose: 400.0 mg/kg/injection, schedule: Q01DX009 (ip), vehicle: Klucel (hydroxypropylcellulose) (HPC) 94 % of control | [3] 91 % of control

CC(=O)OCC1CCC1
inactive: [4] 93 % of control | dose: 100.0 mg/kg/injection, schedule: Q04DX002 (ip), vehicle: saline 105 % of control | [5] 91 % of control | dose: 200.0 mg/kg/injection, schedule: Q04DX002 (ip), vehicle: saline 118 % of control | dose: 400.0 mg/kg/injection, schedule: Q01DX001 (ip), vehicle: saline 90 % of control | dose: 400.0 mg/kg/injection, schedule: Q04DX002 (ip), vehicle: saline 96 % of control

O=C(Nc1ccccc1)Nc1ccc(Cl)cc1Cl
inactive: dose: 12.5 mg/kg/injection, schedule: Q04DX002 (ip), vehicle: other 107 % of control | dose: 25.0 mg/kg/injection, schedule: Q04DX002 (ip), vehicle: other 93 % of control | dose: 50.0 mg/kg/injection, schedule: Q04DX002 (ip), vehicle: other 90 % of control | dose: 100.0 mg/kg/injection, schedule: Q04DX002 (ip), vehicle: other 96 % of control

CCOC(=O)CN1C(=O)C(Cl)=C(Cl)C1=O
inactive: dose: 3.12 mg/kg/injection, schedule: Q01DX009 (ip), vehicle: saline with Tween-80 98 % of control | dose: 6.25 mg/kg/injection, schedule: Q01DX009 (ip), vehicle: saline with Tween-80 98 % of control | dose: 12.5 mg/kg/injection, schedule: Q01DX009 (ip), vehicle: saline with Tween-80 96 % of control

COC(=O)/C=C(\C(=O)OC)n1ccccc1=O
inactive: dose: 5.0 mg/kg/injection, schedule: Q01DX001 (ip), vehicle: saline 101 % of control | dose: 10.0 mg/kg/injection, schedule: Q01DX001 (ip), vehicle: saline 98 % of control | dose: 20.0 mg/kg/injection, schedule: Q01DX001 (ip), vehicle: saline 95 % of control | dose: 40.0 mg/kg/injection, schedule: Q01DX001 (ip), vehicle: saline 102 % of control

CCC(CC)(COC(C)=O)C[N+](C)(C)C
inactive: [4] 103 % of control | dose: 100.0 mg/kg/injection, schedule: Q04DX003 (ip), vehicle: saline 94 % of control | [5] 95 % of control | dose: 200.0 mg/kg/injection, schedule: Q04DX003 (ip), vehicle: saline 102 % of control

COC1=CC(=O)CC(C)C12Oc1c(Cl)c(OC)cc(OC)c1C2=O (centres undefined)
inactive: dose: 5.0 mg/kg/injection, schedule: Q## X008 (ip), vehicle: other 103 % of control | dose: 10.0 mg/kg/injection, schedule: Q## X008 (ip), vehicle: other 91 % of control | dose: 20.0 mg/kg/injection, schedule: Q## X008 (ip), vehicle: other 94 % of control | dose: 40.0 mg/kg/injection, schedule: Q## X008 (ip), vehicle: other 91 % of control | dose: 50.0 mg/kg/injection, schedule: Q## X024 (ip), vehicle: other 111 % of control | dose: 80.0 mg/kg/injection, schedule: Q## X008 (ip), vehicle: other 88 % of control | dose: 100.0 mg/kg/injection, schedule: Q## X024 (ip), vehicle: other 100 % of control | dose: 200.0 mg/kg/injection, schedule: Q## X024 (ip), vehicle: other 100 % of control | dose: 400.0 mg/kg/injection, schedule: Q## X024 (ip), vehicle: other 95 % of control | dose: 800.0 mg/kg/injection, schedule: Q## X024 (ip), vehicle: other 100 % of control
